Measurements reported in patent US20070015815A1, “Hydrazide substrate shuts down protein biosynthesis capability in cells that host a metastatic or malignant disease mechanism” (priority 2003, published 2007).
Where two headings read alike, the source gives them in different places.

Experiments:
fetal cells = type: in vivo; settings: offspring
tuberculosis organism = settings: Fox, 1952; cited from earlier work
[1] = Public Health Service Pub. No.1589 (1967); cited from earlier work
influenza = influenza of the applicant; type: in vivo, human; settings: small dose
Description: Such irreversible substrate concept has been postulated as an oxidase enzyme inhibitor which the applicant agrees is correct in context that such is a protease inhibitor and not an oxidase inhibitor. Such concept provides a hypothesis that logically explains all hydrazide biological prior art phenomena and can predict the prodrug type irreversible substrate action of any simple or low molecular weight hydrazide molecule. The irreversible substrate type protease inhibitor idea is also in agreement with the antidepressant drug explanation and working model, and the Malazide explanation and working model, and was predicted and illustrated by the mouse fetus experiment, and additionally concurs with the Marboran antiviral working model and explanation. […] And following a long period of time where no research was conducted due to family tragedies and related obstruction, the applicant returned to such work where the MAOI type hydrazide, Iproniazid, was then successfully used to target and shutdown protein biosynthesis in cells that hosted malignant disease mechanisms comprising various types of cancers and viral infections. […]

basal cell carcinoma = basal cell carcinoma of the applicant; type: in vivo, human; settings: during the melanoma treatment
Description: A second more benign cancer growth coexisted at the same time while the melanoma treatment was ongoing which was of the basal cell carcinoma type which was not very noticeable, bothersome, or believed to be life threatening, but which also disappeared following the hydrazide melanoma treatment. The basal cell carcinoma was located below the left eye on the applicant's cheek which was characterized by a hard, gritty, cellular formation where scratching or rubbing the surface would dislodge some of the small hard cells which is a common characteristic of basal cell carcinoma. Although the condition was not apparent or at a life threatening stage at the time, and had never raised concerns or the idea of providing opportunity for Iproniazid screening as the melanoma cancer did, it was nevertheless inadvertently shutdown by Iproniazid and had likewise disappeared. Such successful use of Iproniazid as a cancer treatment method constitutes a new cancer treatment use for the MAOI hydrazide product.

[2] = tested on: bacterial gastroenteritis; assay: bacterial gastroenteritis of the applicant; type: in vivo, human; settings: 100 mg dose with warm tap water
Kaposi's Sarcoma = Kaposi's Sarcoma of the applicant; set-up: species or system human; settings: in vivo
HIV = type: in vivo, human
[3] = in vivo; cited from earlier work
[4] = cited from earlier work
polio = settings: Thompson, about 1953; cited from earlier work
smallpox = settings: Thompson, about 1953; cited from earlier work
[5] = 1500 mg to 3000 mg daily; cited from earlier work
malignant melanoma = malignant melanoma of the applicant; type: in vivo, human; settings: about 100 mg daily for about three or four weeks
Description: The MAOI hydrazide anticancer concept was reduced to practice by the applicant when an impromptu opportunity appeared after a decade old mole began to metastasize. The growth was about a half inch in diameter located in the center of the applicant's forehead, and had remained stable, symmetrical, and unchanged for years when it began to increase in size, shape, and having mixed pigmentation indicative of malignant melanoma. At such time the applicant began a treatment regimen based on Iproniazid Phosphate at about 100 mg daily for about three or four weeks when the perimeter of the growth began to separate from the skin surface underneath and itch. The applicant would unconsciously pick at the protruding edge as if picking at a scab which served to more quickly separate the neoplastic part at its perimeter where sections were peeled away.

viral conjunctivitis = viral conjunctivitis of the applicant; type: in vivo, human; settings: single dose of about 100 mg

Compound: CC(C)NNC(=O)c1ccncc1 [Iproniazid, Isonicotinic acid 2-isopropylhydrazide]
- outcome of fetal cell division and growth shutdown in pregnant mice (fetal cells): birth of all healthy mice that matured normally to provide midget size adults
- tuberculostatic activity (tuberculosis organism): did not appear to kill the tuberculosis organism
- lethal dose for mice [1]: 1760 mg/kg
- effect on influenza (influenza): very rapid recovery
- effect on basal cell carcinoma (basal cell carcinoma): disappeared
- time until all pain and griping had disappeared [2]: ≤ 10 min
- time until most pain was gone [2]: ≤ 5 min
- effect on Kaposi's Sarcoma (Kaposi's Sarcoma): inhibit and shutdown
- outcome after completed treatment study (HIV; after planned research was completed): the virus was eradicated in total
- cytotoxic effects [3]: no cytotoxic effects

Compound: NNC(=O)c1ccncc1 [Isoniazid, Isonicotinic acid hydrazide]
- tuberculostatic activity (tuberculosis organism): exceeded all other substances screened
- fraction converted by metabolism to the hydrazide (acetyl) metabolite ([4]; in vivo): 50%

Compound: CN1C(=O)C(=NNC(N)=S)c2ccccc21 [Marboran, 1-Methylindole-2,3,-dione 3 thiosemicarbazone]
- antiviral action against polio (polio): effective
- antiviral action against smallpox (smallpox): effective
- side effects accompanying use [5]: nausea and vomiting

Compound: NN [hydrazine]
- fraction converted by metabolism to the hydrazide (acetyl) metabolite ([4]; Fox): about 50%

Compound: Iproniazid phosphate
- effect on malignant melanoma growth (malignant melanoma): removed in total
- course after the single dose (HIV; after several weeks): the virus begin to return
- effect of initial single dose on HIV viral activity (HIV; single dose of about 100 mg, applicant): shutdown the viral activity seemingly in total
- effect on viral conjunctivitis (viral conjunctivitis): disappearance of the inflamation of the conjunctiva
